From patent US9062015B2, “Inhibitors of sphingosine kinase” (Merck Patent GmbH, priority 2009, dated 2015) come the findings set out here.

For the test, the target named is SphK1 (Homo sapiens, UniProt Q9NYA1). The test can be described thus: SphK1 kinase assay, 384-well flashplate (biochemical assay). As to conditions: IC50 ranges; 5 nM modified SphK1, 800 nM omega-biotinyl-D-erythro-sphingosine, 1 μM ATP, 30° C., 120 min; read-out: SphK1 Inhibition IC50. Here is the method: Tests for the Inhibition of the SphK1 Activity
Chain of SphK1 (Q9NYA1 9-364 limits assumed): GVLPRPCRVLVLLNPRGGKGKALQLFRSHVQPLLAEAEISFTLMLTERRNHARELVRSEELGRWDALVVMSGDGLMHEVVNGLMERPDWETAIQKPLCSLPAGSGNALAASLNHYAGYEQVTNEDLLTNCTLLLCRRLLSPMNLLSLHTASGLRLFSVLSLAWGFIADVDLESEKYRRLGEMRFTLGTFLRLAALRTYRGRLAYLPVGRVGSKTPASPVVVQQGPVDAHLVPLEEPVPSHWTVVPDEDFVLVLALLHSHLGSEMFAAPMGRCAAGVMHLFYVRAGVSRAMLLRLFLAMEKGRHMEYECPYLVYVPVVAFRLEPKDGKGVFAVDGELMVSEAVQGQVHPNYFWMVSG
The kinase assay is carried out as a 384-well flashplate assay.
5 nM modified SphK1, 800 nM omega-biotinyl-D-erythro-sphingosine and 1 μM ATP (with 0.3 μCi of ^33P-ATP/well) are incubated in a total volume of 50 μl (25 mM HEPES, 5 mM MgCl2, 1 mM dithiothreitol, 0.01% of Brij35, 0.1% of BSA (fatty acid-free), pH 7.4) without or with test substance (5-10 concentrations) at 30° C. for 120 min. The reaction is terminated using 25 μl of 200 mM EDTA solution, filtered off with suction at room temperature after 30 min, and the cavities are washed 3 times with 100 μl of 0.9% NaCl solution. The non-specific proportion of the kinase reaction (blank) is determined using 0.5 mM NaCl. Radioactivity is measured in topcount. IC50 values are calculated using RS1.

Usually IC50 stands for the midpoint of a concentration-inhibition curve. For the compound `CC1(C)CCCc2ccc(-c3cccc(N4CCN(CCCCO)CC4)n3)cc21` [4-{4-[6-(8,8-Dimethyl-5,6,7,8-tetrahydronaphthalen-2-yl)pyridin-2-yl]-piperazin-1-yl}butan-1-ol], the IC50 was more than 1 µM.

`CC1(C)CCC(C)(C)c2cc(-c3cccc(N4CCC(NCCCCCO)CC4)n3)ccc21` [5-[6′-(5,5,8,8-Tetramethyl-5,6,7,8-tetrahydronaphthalen-2-yl)-3,4,5,6-tetrahydro-2H-1,2′-bipyridinyl-4-ylamino]pentan-1-ol]: the IC50 is 0.1 to 1 µM.

For `CC1(C)CC(C)(C)c2cc(-c3cccc(N4CCN(CCCCCO)CC4)n3)ccc21` [5-{4-[6-(1,1,3,3-Tetramethylindan-5-yl)pyridin-2-yl]piperazin-1-yl}-pentan-1-ol], the IC50 lay within 0.1 to 1 µM.

On to `CC1(C)CCc2cc(-c3cccc(N4CCN(CCCCCO)CC4)n3)ccc21` [5-{4-[6-(1,1-Dimethylindan-5-yl)pyridin-2-yl]piperazin-1-yl}pentan-1-ol], for which the IC50 is more than 1 µM.

For the compound `CC1(C)CCCc2cc(-c3cccc(N4CCN(CCCCCO)CC4)n3)ccc21` [5-{4-[6-(5,5-Dimethyl-5,6,7,8-tetrahydronaphthalen-2-yl)pyridin-2-yl]-piperazin-1-yl}pentan-1-ol], the IC50 lay in the range of 0.1 to 1 µM.

As to `CC1(C)CCCc2ccc(-c3cccc(N4CCN(CCCCCO)CC4)n3)cc21` [5-{4-[6-(8,8-Dimethyl-5,6,7,8-tetrahydronaphthalen-2-yl)pyridin-2-yl]-piperazin-1-yl}pentan-1-ol], the IC50 was more than 1 µM.

With `CC1(C)CCC(C)(C)c2cc(-c3cccc(C4CCNCC4)n3)ccc21` [6-(5,5,8,8-Tetramethyl-5,6,7,8-tetrahydronaphthalen-2-yl)-1′,2′,3′,4′,5′,6′-hexahydro-2,4′-bipyridinyl], the IC50 lay within 0.1 to 1 µM.

As to `CC1(C)CCC(C)(C)c2cc(-c3cncc(N4CCNCC4)n3)ccc21` [6′-(5,5,8,8-Tetramethyl-5,6,7,8-tetrahydronaphthalen-2-yl)-3,4,5,6-tetrahydro-2H-1,2′-bipyrazinyl], the IC50 was more than 1 µM.

As to `CC1(C)CCC(C)(C)c2cc(-c3cccc(N4CCC(N)CC4)n3)ccc21` [6′-(5,5,8,8-Tetramethyl-5,6,7,8-tetrahydronaphthalen-2-yl)-3,4,5,6-tetrahydro-2H-1,2′-bipyridinyl-4-ylamine], the IC50 was 0.1 to 1 µM.

With `CC1(C)CCC(C)(C)c2cc(-c3cccc(N4CCC(N5CCCC(O)C5)CC4)n3)ccc21` (stereo not shown) [6″-(5,5,8,8-Tetramethyl-5,6,7,8-tetrahydronaphthalen-2-yl)-3,4,5,6,3′,4′,5′,6′-octahydro-2H,2′H-[1,4′;1′,2″]terpyridin-3-ol], the IC50 is 0.1 to 1 µM.
